Laboratory results as given in PubChem BioAssay (NCI).
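1) Cells in 96-well plates. 2) Compound, 48 h, 5 concentrations. 3) Linear interpolation between surrounding doses. 4) Unreached endpoint = highest concentration. TGI is the concentration that stops growth completely.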

Legend:
Assay in all cases: growth of human tumour cells (NCI), 48 h
786-0 renal = test system: 786-0 renal
A498 renal = test system: A498 renal
A549 NSCLC = test system: A549 NSCLC
ACHN renal = test system: ACHN renal
CAKI-1 renal = test system: CAKI-1 renal
CCRF-CEM leukemia = test system: CCRF-CEM leukemia
COLO 205 colon = test system: COLO 205 colon
DMS 114 small cell lung = test system: DMS 114 small cell lung
DMS 273 small cell lung = test system: DMS 273 small cell lung
EKVX NSCLC = test system: EKVX NSCLC
HCC-2998 colon = test system: HCC-2998 colon
HCT-116 colon = test system: HCT-116 colon
HCT-15 colon = test system: HCT-15 colon
HL-60(TB) leukemia = test system: HL-60(TB) leukemia
HOP-62 NSCLC = test system: HOP-62 NSCLC
HT29 colon = test system: HT29 colon
IGROV1 ovarian = test system: IGROV1 ovarian
K-562 leukemia = test system: K-562 leukemia
KM12 colon = test system: KM12 colon
KM20L2 colon = test system: KM20L2 colon
LOX IMVI melanoma = test system: LOX IMVI melanoma
M14 melanoma = test system: M14 melanoma
M19-MEL melanoma = test system: M19-MEL melanoma
MALME-3M melanoma = test system: MALME-3M melanoma
MOLT-4 leukemia = test system: MOLT-4 leukemia
NCI-H226 lung = test system: NCI-H226 lung
NCI-H23 lung = test system: NCI-H23 lung
NCI-H460 lung = test system: NCI-H460 lung
NCI-H522 lung = test system: NCI-H522 lung
OVCAR-3 ovarian = test system: OVCAR-3 ovarian
OVCAR-4 ovarian = test system: OVCAR-4 ovarian
OVCAR-5 ovarian = test system: OVCAR-5 ovarian
OVCAR-8 ovarian = test system: OVCAR-8 ovarian
RPMI-8226 leukemia = test system: RPMI-8226 leukemia
RXF 393 renal = test system: RXF 393 renal
SF-268 CNS = test system: SF-268 CNS
SF-295 CNS = test system: SF-295 CNS
SF-539 CNS = test system: SF-539 CNS
SK-MEL-2 melanoma = test system: SK-MEL-2 melanoma
SK-MEL-28 melanoma = test system: SK-MEL-28 melanoma
SK-MEL-5 melanoma = test system: SK-MEL-5 melanoma
SK-OV-3 ovarian = test system: SK-OV-3 ovarian
SN12C renal = test system: SN12C renal
SNB-19 CNS = test system: SNB-19 CNS
SNB-75 CNS = test system: SNB-75 CNS
SNB-78 CNS = test system: SNB-78 CNS
SR leukemia = test system: SR leukemia
SW-620 colon = test system: SW-620 colon
TK-10 renal = test system: TK-10 renal
U251 CNS = test system: U251 CNS
UACC-257 melanoma = test system: UACC-257 melanoma
UACC-62 melanoma = test system: UACC-62 melanoma
UO-31 renal = test system: UO-31 renal

Measured: TGI

O=C(OC1CCC2OOC1O2)c1ccc([N+](=O)[O-])cc1 (stereo not drawn)
> 100 µM: all assays above
